The test system of the experiment is human peripheral blood cells. Put plainly: Immunostimulant activity: human lymphocyte proliferation revealed by BrdU labelling. Format: cell-based. As to conditions: for % stimulation relative to the control: 3 days of culture, BrdU labelling. The procedure: The immunostimulant activity is tested in the following way: human peripheral blood cells are cultured in the presence of an RPMI-type culture medium supplemented with L-glutamine (2 mM), penicillin/streptomycin (50 μg/50 IU/ml) and foetal calf serum (10%). The C-glycoside derivatives are added at various concentrations (10 to 0.05 mM), as is phyto-haemagglutinin (PHA at 5 […]), a positive control for lymphocyte proliferation.
In general terms: Incorporation of labelled thymidine or its analogues reports DNA synthesis.

`CC(=O)C[C@@H]1O[C@H](CO)[C@H](O)[C@H](O)[C@H]1O` [Compound 1, 1-(C-β-galactopyranosyl)propan-2-one]: the “% stimulation relative to the control” value was found to be 91% (0.05 mM); 89% (0.1 mM); 130% (0.5 mM); 138% (1 mM); 261% (5 mM); 271% (10 mM). Also, the “human lymphocyte proliferation (result in words)” value (all the concentrations tested (10 to 0.05 mM)) is “tendency to stimulate human lymphocyte proliferation at all the concentrations tested”.

Source of the values: US20140220081A1, “USE OF A GALACTOSE-DERIVED C-GLYCOSIDE COMPOUND AS AN AGENT FOR ACTIVATING AND REGULATING CUTANEOUS IMMUNITY” (L'OREAL, priority 2006, published 2014).
